Measured values: paper PMC11926788, “Effect of SSR504734, a Selective Glycine Transporter Type 1 Inhibitor, on Seizure Thresholds, Neurotransmitter Levels, and Inflammatory Markers in Mice” (ACS Chemical Neuroscience, 2025)
Like-named read-outs stand apart in the source and are kept apart here.

Legend:
[1] = system: tonic hindlimb extension in the MEST test in rats; conditions: cited from earlier work
[2] = system: tonic hindlimb extension in the MEST test in mice; conditions: cited from earlier work; for effect on threshold for tonic hindlimb extension: MEST test in mice
[3] = PAMPA (Gentest Precoated PAMPA Plate System); assay type: in vitro ADME; conditions: ± SD
Procedure: (§1) A series of in vitro ADME-Tox tests were performed for SSR504734 in order to estimate its drugability. The ADME-Tox parameters including permeability, plasma protein binding, metabolic stability, neurotoxicity, and hepatotoxicity were carried out as described previously.[31],[32] The ability of SSR504734 to penetrate through the biological membrane by passive diffusion was estimated by the Gentest Precoated PAMPA Plate System (Corning, Tewksbury, MA) and expressed as the permeability coefficient (Pe). The protein binding analysis was performed by using the commercial TRANSIL^XL PPB test, which mimics in vitro physiological plasma conditions where human serum albumin (HAS) and alpha-1-acid glycoprotein AGP are present in a 24:1 ratio. The human metabolism of SSR504734 was studied using human liver microsomes (HLMs) provided by Sigma-Aldrich. The hepatotoxicity and neurotoxicity were estimated in cellular models with the use of hepatoma HepG2 and neuroblastoma SH-SY5Y cell lines to perform the preliminary safety tests. The cells were incubated with SSR504734 at the concentration range of 0.1–100 μM. 1 μM cytostatic drug doxorubicin (DX) was used as the reference.

[4] = system: tonic hindlimb extension in the MEST test in mice; assay: Maximal electroshock seizure threshold (MEST) test; assay type: in vivo; conditions: 150 mg/kg i.p.
Procedure: A sinusoidal current alternation was delivered via saline-soaked transcorneal electrodes. Before stimulation, an ocular anesthetic (1% tetracaine hydrochloride solution obtained from Sigma-Aldrich, St. Louis, MO, USA) was administered to each eye of the mice. During stimulation, the mice were manually immobilized in a hand for 3–5 s and immediately relocated to a transparent box for behavioral observation after the stimulation. Hindlimb tonic extension was taken as an end point. Two experimental approaches were employed: (1) the maximal electroshock seizure threshold (MEST) test at varied current intensities and (2) the maximal electroshock (MES) test at a fixed current intensity.
In the MEST test, seizure thresholds were determined using the “up-and-down” method described by Kimball et al.[28] […] Each mouse was stimulated only once.

[5] = system: 6 Hz-induced psychomotor seizures in mice; assay: 6 Hz-induced psychomotor seizure threshold test; assay type: in vivo; conditions: SSR504734 any of the doses tested, VPA 150 mg/kg
Procedure: Psychomotor seizures were induced through the application of rectangular pulses (0.2 ms width; 6 pulses per second) for 3 s using a Grass model CCU1 constant current unit coupled to a Grass S48 stimulator (Grass Technologies, Warwick, RI, USA). Stimuli were delivered via saline-soaked transcorneal electrodes. An ocular anesthetic (1% tetracaine hydrochloride) was administered on the animal’s corneas. Mice were restrained manually during stimulation and placed in transparent box immediately for behavioral observation. 6 Hz-induced seizures were characterized by head-nodding, chewing, eye-blinking, twitching of the vibrissae, rearing, stunned posture, forelimb clonus, and Straub tail. The absence of the described features or the return to normal exploratory behavior within 20 s poststimulation was considered as the absence of seizures. The 6 Hz seizure threshold test were conducted on groups of 20 animals stimulated with different current intensities by using the “up-and-down” method described by Kimball et al.[28]
The seizure threshold was quantified as the median current strength (CS50 value with confidence limits for 95% probability), predicting the induction of psychomotor seizures in 50% of the tested animals.

[6] = system: i.v. PTZ-induced seizures in mice; assay: Intravenous (i.v.) PTZ seizure threshold test; assay type: in vivo; conditions: VPA 150 mg/kg
Procedure: Mice were individually placed in a plastic restrainer (12 cm long, 3 cm inner diameter), and the lateral vein of each mouse was catheterized using a 27-gauge needle (Sterican, B. Braun Melsungen, Melsungen, Germany). The needle was attached by polyethylene tubing (PE20RW, Plastics One Inc., Roanoke, VA, USA) to a 10 mL plastic syringe containing 1% solution of PTZ in saline (Sigma-Aldrich, St. Louis, MO, USA) and mounted to a syringe pump (model Physio 22, Hugo Sachs Elektronik, Harvard Apparatus GmbH, March-Hugstetten, Germany). Piece of adhesive tape was used to secure the needle. The proper placement of the needle in the vein was verified by the appearance of blood in the tubing. During the test, mice were placed in a transparent box for observation. The PTZ solution was administered to freely moving mice at a constant rate of 0.2 mL/min. The time intervals from the initiation of PTZ infusion to the occurrence of the three following end points, i.e., (1) the first myoclonic twitch, (2) generalized clonic seizure with loss of righting reflex, and (3) forelimb tonus, were recorded. The PTZ infusion was terminated when tonic seizures, which were often fatal for the mice, began. All mice that survived were euthanized immediately. The thresholds were calculated separately for each end point using the following formula: threshold dose of PTZ (mg/kg) = infusion duration (s) × infusion rate (mL/s) × PTZ concentration (mg/mL)/body weight (kg). Seizure threshold was expressed as the amount of PTZ (mg/kg) ± SD (standard deviation) needed to produce the first observable sign of each end point. Each group consisted of 12–15 animals.

[7] = Grip strength test (neuromuscular strength); assay type: in vivo, mice; conditions: 150 mg/kg i.p.
Procedure: The effect of SSR504734 on neuromuscular strength was determined using the grip-strength apparatus (BioSeb, Chaville, France). The apparatus consists of a steel wire grid of 8 × 8 cm, connected to an isometric force transducer. Each mouse was held by the tail, allowing it to grasp the grid with its forepaws only and steadily pulled back until it released the grid. The maximum grip strength value (in newtons; N) was measured three times for each animal. The mean force was normalized to body weight and expressed in mN/g ± SD for each experimental group. In order to minimize the number of animals used, a grip-strength test was carried out shortly before seizure tests.
(§2) Table S2. Time-course effect of SSR5504734 on neuromuscular strength and motor […]
(§3) Group Neuromuscular strength Impairment of motor
(§4) SSR504734 was dissolved in normal saline and injected i.p. at the dose of 30 mg/kg. Control animals received saline. The data are expressed as the mean ± SD of grip strengths measured in millinewtons per gram of mouse body weight (mN/g) from the grip-strength test assessing […]
(§5) coordination impairment in the chimney test. Each experimental group consisted of 12 animals. The grip-strength test results were analyzed using a one-way ANOVA with Dunnett’s post hoc test, while the data from the chimney test were statistically evaluated using Fisher’s exact probability test. *p<0.05 vs. control group.
(§6) Table S3. Effect of acute and 14-day treatment with SSR504734 on neuromuscular strength and motor coordination in mice
(§7) In acute studies, SSR504734 and sodium valproate (VPA; positive control) were injected i.p.
(§8) 60 and 15 min before the test, respectively. In subchronic studies, SSR504734 and VPA were injected i.p. every 24 h for 14 days. The last administration was made 60 and 15 min before the tests, respectively. Control animals received saline. Each experimental group consisted of 12 animals. The grip-strength test results were analyzed using a one-way ANOVA with […]
(§9) Fisher’s exact probability test.

[8] = Chimney test (motor coordination); assay type: in vivo, mice; conditions: 150 mg/kg i.p.
Procedure: The impact of SSR504734 on motor coordination in mice was evaluated by using the chimney test. Each animal was individually placed inside a transparent Plexiglas tube with an inner diameter of 3 cm and a length of 30 cm. The tube was horizontally positioned on a table and shifted vertically once the mouse reached the opposite end. Within a 60 s time frame, the mouse was required to climb backward to escape from the tube. In order to minimize the number of animals used, a chimney test was carried out shortly before seizure tests.
as §2, §3, §4, §5, §6, §7, §8, §9

[9] = system: neuroblastoma SH-SY5Y cells; assay: Neurotoxicity, SH-SY5Y cell viability; assay type: cell-based; conditions: Homo sapiens; SH-SY5Y, 72 h of incubation
Procedure: as §1
(§10) Figure 8 Effect of cytostatic drug doxorubicin (DX) and SSR504734 on (A) hepatoma HepG2 and (B) neuroblastoma SH-SY5Y cell lines viability after 72 h of incubation at 37 °C, 5% CO2. Data are expressed as means ± SD. Statistical analysis: ****p < 0.0001 vs negative control −1% DMSO in growth media (one-way ANOVA, followed by Dunnett’s post hoc test).
(§11) Figure S8. The effect of cytostatic drug doxorubicin and SSR504734 on (A) hepatoma
(§12) HepG2 and (B) neuroblastoma SH-SY5Y cell line viability after 72 h of incubation at 37 °C,
(§13) 5% CO2. The IC50 values were calculated by GraphPad Prism 8.0.
(§14) (1 picture or pasted object on this page, not shown here)

[10] = system: hepatoma HepG2 cells; assay: Hepatotoxicity, HepG2 cell viability; assay type: cell-based
Procedure: as §1, §10, §11, §12, §13, §14

[11] = biological target: T1, rat GlyT1 (Rattus norvegicus, UniProt P28572); assay: GlyT1 radioligand binding ([3H]glycine, rat brain cortex, Eurofins Panlabs); conditions: rat brain cortex; read-out: IC50 (reference GlyT1 inhibitor in this testing system)
T1 construct: tissue Eurofins Panlabs Discovery Services Taiwan, Ltd. (ran the assay); host or cells: Wistar rat brain cortex
T1 sequence (P28572 1-638): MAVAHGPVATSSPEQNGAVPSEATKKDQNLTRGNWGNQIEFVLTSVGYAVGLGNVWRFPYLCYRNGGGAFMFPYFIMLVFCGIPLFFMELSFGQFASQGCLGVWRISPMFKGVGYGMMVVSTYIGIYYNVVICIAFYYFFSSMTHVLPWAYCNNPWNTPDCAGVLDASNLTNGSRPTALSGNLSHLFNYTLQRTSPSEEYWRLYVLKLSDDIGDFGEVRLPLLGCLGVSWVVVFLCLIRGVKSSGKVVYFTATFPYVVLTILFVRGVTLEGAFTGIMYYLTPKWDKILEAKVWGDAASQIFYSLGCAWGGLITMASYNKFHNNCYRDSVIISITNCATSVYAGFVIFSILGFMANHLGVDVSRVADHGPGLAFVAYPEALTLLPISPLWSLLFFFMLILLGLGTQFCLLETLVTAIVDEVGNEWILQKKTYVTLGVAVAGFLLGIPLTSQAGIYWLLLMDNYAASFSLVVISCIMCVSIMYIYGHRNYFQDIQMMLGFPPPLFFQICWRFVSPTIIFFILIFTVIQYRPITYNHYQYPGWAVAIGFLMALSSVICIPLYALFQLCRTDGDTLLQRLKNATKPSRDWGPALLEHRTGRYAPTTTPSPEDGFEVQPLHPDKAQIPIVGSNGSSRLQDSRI

[12] = system: GlyT1; conditions: read-out: IC50 (competitive inhibitor of GlyT1); cited from earlier work
[13] = system: i.v. PTZ-induced seizures; conditions: cited from earlier work

## Cc1cccc(C)c1C(=O)N[C@@H](c1ccccc1)C1(N(C)C)CCCC1 [GSK931145]
[1]
  effect on threshold for tonic hindlimb extension: strong, dose-dependent increase

## CN(CCOc1ccc(-c2ccc3c(c2)OCO3)cc1C(C)(C)C)CC(=O)O [LY2365109]
[2]; MEST- and PTZ-induced seizure tests, mice
  effect on seizure thresholds: increased seizure thresholds

## CN(CCC(Oc1ccc(-c2ccccc2)cc1)c1ccc(F)cc1)CC(=O)O (stereo not drawn) [NFPS]
[1]
  effect on threshold for tonic hindlimb extension: strong, dose-dependent increase

## Cn1c(=O)c2c(ncn2C)n(C)c1=O [caffeine]
[3]; PAMPA, read-out: PAMPA Pe
  Papp: 7.77 ± 2.3 ×10⁻⁶ cm/s
[3]
  PAMPA Pe: 7.77 10^–6 cm/s

## CCCC(CCC)C(=O)O [VPA, sodium valproate]
[4]; 14-day administration
  fold increase of seizure threshold: 1.7 fold
[4]; single administration, 15 min before test
  fold increase of seizure threshold: 1.8 fold
[5]; 14-day administration i.p.
  effect on current intensity necessary to induce psychomotor seizures: marked increase
[5]; single administration i.p.
  effect on current intensity necessary to induce psychomotor seizures: marked increase
[6]; 14-day treatment i.p.
  effect on thresholds for myoclonic twitch, generalized clonus and forelimb tonus: significantly increased the thresholds
[6]; single administration i.p.
  effect on thresholds for myoclonic twitch, generalized clonus and forelimb tonus: significantly increased the thresholds
[7]; 14-day treatment
  Neuromuscular strength: 22.27 ± 4.84 mN/kg
[7]; acute treatment
  Neuromuscular strength: 29.73 ± 4.60 mN/kg
[8]; 14-day treatment
  Impairment of motor coordination: 0%
[8]; acute treatment
  Impairment of motor coordination: 8.33%

## COc1ccc2c(c1)CC[C@H](CN(C)CC(=O)O)[C@@H]2c1ccccc1 [Org25935]
[1]
  effect on threshold for tonic hindlimb extension: strong, dose-dependent increase

## COc1cccc2c1C(=O)c1c(O)c3c(c(O)c1C2=O)C[C@@](O)(C(=O)CO)C[C@@H]3O[C@H]1C[C@H](N)[C@H](O)[C@H](C)O1 [doxorubicin]
[9]
  IC50: 300 nM
[10]; 1 μM, 72 h
  toxicity to HepG2 cells: highly toxic
[10]; Homo sapiens, HepG2, 72 h of incubation
  IC50: 1910 nM

## CNCC(=O)O [sarcosine]
[11]
  IC50: 55.8 µM
[12]
  IC50: 91 µM
[2]
  effect on threshold for tonic hindlimb extension: increased the threshold
[2]; listed as Sarcosine
  effect on threshold for tonic hindlimb extension: raised the threshold
[13]
  effect in the i.v. PTZ test: devoid of any effect
